A word on the Kd: it is the constant that tells how readily two partners part at equilibrium.

This is an account of results in BindingDB's records for doi:10.7270/Q2WH2TT9 (D3R/Abbott, 2020).

Molecules are shown by their SMILES.

For the assay, the target named is Angiopoietin-1 receptor (Homo sapiens, UniProt Q02763). The experiment in a line: D3R2025.
Excerpt: D3R2025

Angiopoietin-1 receptor, sequence (Q02763 whole entry): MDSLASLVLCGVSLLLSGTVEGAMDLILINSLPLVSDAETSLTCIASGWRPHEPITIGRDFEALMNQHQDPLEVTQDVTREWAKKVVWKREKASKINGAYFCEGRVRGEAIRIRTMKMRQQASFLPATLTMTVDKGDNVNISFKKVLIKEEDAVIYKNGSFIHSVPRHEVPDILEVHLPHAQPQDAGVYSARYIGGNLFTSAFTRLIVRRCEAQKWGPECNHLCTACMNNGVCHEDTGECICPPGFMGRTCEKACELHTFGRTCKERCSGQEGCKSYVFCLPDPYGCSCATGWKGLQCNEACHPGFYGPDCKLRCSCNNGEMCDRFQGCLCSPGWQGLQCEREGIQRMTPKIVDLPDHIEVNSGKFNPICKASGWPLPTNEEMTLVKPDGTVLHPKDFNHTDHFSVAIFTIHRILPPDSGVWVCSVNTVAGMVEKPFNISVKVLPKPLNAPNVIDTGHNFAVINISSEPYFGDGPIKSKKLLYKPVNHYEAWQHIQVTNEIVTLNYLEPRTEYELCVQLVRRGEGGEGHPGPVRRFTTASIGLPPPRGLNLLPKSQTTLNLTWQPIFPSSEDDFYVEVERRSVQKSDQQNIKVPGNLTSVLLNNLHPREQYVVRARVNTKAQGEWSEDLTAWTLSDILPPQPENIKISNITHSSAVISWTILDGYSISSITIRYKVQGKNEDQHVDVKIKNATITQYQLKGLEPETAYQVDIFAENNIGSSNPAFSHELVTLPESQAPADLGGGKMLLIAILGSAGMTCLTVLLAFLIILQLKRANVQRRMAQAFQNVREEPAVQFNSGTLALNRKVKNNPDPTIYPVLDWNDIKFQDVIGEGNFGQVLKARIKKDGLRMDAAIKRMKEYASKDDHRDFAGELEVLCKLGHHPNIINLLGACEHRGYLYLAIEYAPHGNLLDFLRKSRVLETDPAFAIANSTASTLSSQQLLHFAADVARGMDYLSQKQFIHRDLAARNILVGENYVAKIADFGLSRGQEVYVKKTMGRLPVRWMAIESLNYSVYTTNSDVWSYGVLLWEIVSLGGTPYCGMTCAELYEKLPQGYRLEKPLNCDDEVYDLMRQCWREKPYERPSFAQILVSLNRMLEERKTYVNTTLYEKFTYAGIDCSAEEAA

On to `CCc1nc(-c2cccc(N(C)S(=O)(=O)c3ccccc3)c2)c(-c2ccnc(Nc3ccc(N4CCN(C(C)=O)CC4)nc3)n2)s1` [D3RKN_120], for which the Kd was 3.2 µM.

Take `CNc1nccc(-c2c(-c3ccc(F)cc3)ncn2C2CCN(C)CC2)n1` [{4-[5-(4-Fluoro-phenyl)-3-(1-methyl-piperidin-4-yl)-3H-imidazol-4-yl]-pyrimidin-2-yl}-methyl-amine]: the Kd was determined as 10 µM. This Kd lies about 3.1-fold higher than the previous one.

The compound `CC(=O)N1CCN(c2ccc(Nc3nccc(-c4sc(C(C)C)nc4-c4cccc(NS(=O)(=O)c5cccc(Cl)c5)c4)n3)cn2)CC1` [D3RKN_98] gave a Kd of 0.093 µM.

Compound `O=C(Nc1cccc(-c2nn3ncccc3c2-c2ccnc(Nc3ccccc3)n2)c1)c1c(F)cccc1F` [D3RKN_56] displayed a Kd of 2.5 µM. Compared with the last compound, the Kd is about 27-fold higher.

In the case of `CNc1nccc(-c2c(-c3ccc(F)cc3)ncn2CCCN2CCOCC2)n1`, the affinity, expressed as Kd, was 10 µM.

`CC(C)c1nc(-c2ccc(F)c(NS(=O)(=O)c3c(F)cccc3F)c2)c(-c2ccnc(Nc3ccc(N4CCOCC4)nc3)n2)s1`: the Kd came out at 0.024 µM. Against the preceding compound, the Kd is about 420-fold lower.

Take `O=C(Nc1cccc(-c2nn3ncccc3c2-c2ccnc(Nc3cccnc3)n2)c1)c1c(F)cccc1F`: binding was characterised by a dissociation constant (Kd) of 10 µM.

`CC(C)c1nc(-c2cccc(NS(=O)(=O)c3c(F)cccc3F)c2)c(-c2ccnc(Nc3ccc(N4CCOCC4)nc3)n2)s1` [D3RKN_118] showed a Kd of 0.027 µM.

`CC(C)c1nc(-c2cccc(NS(=O)(=O)c3ccccc3)c2)c(-c2ccnc(Nc3ccc4c(c3)CN(C)CC4)n2)s1` [D3RKN_117] came in with a Kd of 0.092 µM.

`CC(C)c1nc(-c2cccc(NS(=O)(=O)c3c(F)cccc3F)c2F)c(-c2ccnc(Nc3ccc(N4CCOCC4)nc3)n2)s1` [D3RKN_29] showed a dissociation constant (Kd) of 0.0034 µM. This Kd is about 27-fold lower than that of the compound before.

Regarding `CCOC(=O)N1CCC(n2cnc(-c3ccc(F)cc3)c2-c2ccnc(N)n2)CC1` [4-[5-(2-Amino-pyrimidin-4-yl)-4-(4-fluoro-phenyl)-imidazol-1-yl]-piperidine-1-carboxylic acid ethyl ester], binding was put at a Kd of 10 µM. Compared with the last compound, the Kd is about 2900-fold higher.

Regarding `COc1cc(Nc2nccc(-c3c(-c4cccc(NC(=O)c5c(F)cccc5F)c4)nn4ncccc34)n2)cc(OC)c1OC` [D3RKN_124], binding was put at a Kd of 0.2 µM. Against the preceding compound, the Kd is about 50-fold lower.

In the case of `COc1nccc(-c2c(-c3ccc(F)cc3)ncn2CCCN2CCOCC2)n1` [4-{3-[4-(4-Fluoro-phenyl)-5-(2-methoxy-pyrimidin-4-yl)-imidazol-1-yl]-propyl}-morpholine], the Kd is 10 µM.

`Cc1cc(-c2c(-c3ccc(F)cc3)ncn2CCCN2CCOCC2)nc(N)n1` had a Kd of 10 µM. This counts as double-digit micromolar.

As to `CCNc1nccc(-c2c(-c3ccc(F)cc3)ncn2C2CCN(C)CC2)n1` [Ethyl-{4-[5-(4-fluoro-phenyl)-3-(1-methyl-piperidin-4-yl)-3H-imidazol-4-yl]-pyrimidin-2-yl}-amine], the affinity, expressed as Kd, was 10 µM.

Consider `O=C(Nc1cccc(-c2nn3ncccc3c2-c2ccnc(Nc3cccc(C(F)(F)F)c3)n2)c1)c1c(F)cccc1F` [D3RKN_119], for which the Kd was found to be 10 µM.

As for `Nc1nccc(-c2c(-c3ccc(F)cc3)ncn2C2CCN(CC(F)(F)F)CC2)n1` [4-{5-(4-Fluoro-phenyl)-3-[1-(2,2,2-trifluoro-ethyl)-piperidin-4-yl]-3H-imidazol-4-yl}-pyrimidin-2-ylamine], the affinity, expressed as Kd, was 10 µM.

Consider `CSc1nccc(-c2c(-c3ccc(F)cc3)ncn2CCCN2CCOCC2)n1`, for which binding was put at a Kd of 10 µM.
